The test system of experiment [1] is T1, β-glucosidase in Sechium edule (Sebg; chayotase).
T1 construct: native purification from fruit pulp (epicarp and mesocarp); homodimer 116 kDa, 58 kDa subunits; tryptic peptides MGFDAYR, FSIAWSR, WFENFLK, DFSEVCFK, EAMQAGVRVK, FGLTYIDYK, NNLK
Briefly: p-nitrophenol release, […] nm; Michaelis-Menten nonlinear fit. The class given is biochemical. The conditions noted are these: standard assay: sodium citrate 0.2 M, pH 5.0, 25 °C.

The target of experiment [2] is β-glucosidase from chayote (Sechium edule) (Sechium edule). Briefly: native gel or EMSA; native PAGE on 5%, 7.5%, 10% and 12.5% polyacrylamide gels, pH 8.3, Hedrick and Smith method; native mass 116 kDa compared with the 58 kDa subunit on SDS-PAGE.

In the case of `O=[N+]([O-])c1ccc(O[C@@H]2O[C@H](CO)[C@@H](O)[C@H](O)[C@H]2O)cc1` [p-nitrophenyl-β-D-glucopyranoside], in experiment [1], the Km worked out at 4.88 mM. As to “β-glucosidase from chayote (Sechium edule) (enzyme)”, in experiment [2], the stoichiometry N was found to be 2.

The values above are taken from PMC6332095, “Purification and Partial Characterization of β-Glucosidase in Chayote (Sechium edule)” (Molecules, 2015).
